Measured values from US20090305276A1, “Method for Predicting Skin Sensitizing Activity of Compounds” (priority 2008, published 2009).
Like-named read-outs stand apart in the source and are kept apart here.

What was measured:
NQO1 = NQO1 (quinone reductase) marker gene expression in cultured mammalian cells; assay type: cell-based; design: key: The ++ signs indicate positive response and the number represents the magnitude of response; The ++ signs indicate positive response and the number represents the magnitude of response; −−−: The dashed lines indicate no measurable response; −−−−: The dashed lines indicate no measurable response; −−−−−: The dashed lines indicate no measurable response; details: gene marker response, preliminary data
From the text: (§1) Specifically, chemicals would be placed in an appropriate vehicle such as DMSO and applied to appropriate mammalian cells, such as human keratinocytes (HaCat cells), 3D human skin cells, normal human epithelial cells (NHEK cells), MCF7 cells, H4IIE cells (ATCC Accession #CRL-1548), or combination cultures including keratinocyte and dendritic cells. Following exposure times of 6, 24, and 72 hr the expression levels of several genes that are associated with an increase risk for sensitization type reactions. The expression of key gene markers associated with sensitization that include but are not limited to quinone reductase, IL-8, CD-86, aldo-keto reductase, thioredoxin, and thioredoxin reductase is measured by RT-PCR.
(§2) In specific embodiments, the expression of gene markers is measured. Appropriate gene markers for the methods of the invention include but are not limited to quinone reductase, IL-8, CD-86, aldo-keto reductase, thioredoxin, and thioredoxin reductase. Expression levels may be measured by any appropriate method of measuring gene expression, including but not limited to polymerase chain reaction (PCR), reverse transcriptase PCR (RT-PCR), fluorescent in situ hybridization (FISH), branched DNA (bDNA) assay, differential display, RNA interference, reporter genes, microarrays, and proteomics. For instance, expression levels may be measured by RT-PCR in at least triplicates. The standard protocols for performing RT-PCR may be obtained from Invitrogen, (Carlsbad, Calif.). Standard methods and protocols for measuring gene expression are described in the literature and in treatises such as Sambrook et al., “Molecular Cloning: A Laboratory Manual” and Avison, Matthew, “Measuring Gene Expression,” Taylor and Francis (2006). These protocols are incorporated herein by reference in their entirety.
(§3) As shown in Table 2 (below), preliminary data were collected and used to build the algorithm for predicting the sensitization. NQO1 is quinone reductase; IL-8 is interleukin-8; and AKR is aldo-keto reductase.
(§4) The compounds listed in Table 2 are known skin sensitizers with different magnitudes of effect. In this example, three gene markers are measured to develop a relationship between the magnitude of response, the number of genes responding above about 15%, and the minimum exposure concentration where expression occurred. The ++ signs indicate positive response and the number represents the magnitude of response. The dashed lines indicate no measurable response.

IL-8 = IL-8 (interleukin-8) marker gene expression in cultured mammalian cells; assay type: cell-based; design: key: The ++ signs indicate positive response and the number represents the magnitude of response; The ++ signs indicate positive response and the number represents the magnitude of response; −−−: The dashed lines indicate no measurable response; −−−−: The dashed lines indicate no measurable response; −−−−−: The dashed lines indicate no measurable response; details: gene marker response, preliminary data
From the text: as §1, §2, §3, §4

AKR = AKR (aldo-keto reductase) marker gene expression in cultured mammalian cells; assay type: cell-based; design: key: The ++ signs indicate positive response and the number represents the magnitude of response; The ++ signs indicate positive response and the number represents the magnitude of response; −−−: The dashed lines indicate no measurable response; −−−−: The dashed lines indicate no measurable response; −−−−−: The dashed lines indicate no measurable response; details: gene marker response, preliminary data
From the text: as §1, §2, §3, §4

[1] = test system: local draining lymph nodes (lymphocyte proliferation); details: known LLNA data; estimated concentration required to produce a stimulation index of 3; cited from earlier work
skin = details: cited from earlier work
[2] = known skin sensitizers with different magnitudes of effect

| Compound | NQO1 (NQO1) | IL-8 (IL-8) | AKR (AKR) | LLNA E3C [1] | Sensitizer Class (skin; in vivo) | Sensitizer Class (skin; [2]) |
| --- | --- | --- | --- | --- | --- | --- |
| CCCOC(=O)c1cc(O)c(O)c(O)c1 [Propyl Gallate] | ++ | ++ | ++ | 15.09 | Strong |  |
| O=C1OC(=O)c2ccccc21 [Phthalic Anhydride] | ++ | + | ++ | 10.8 |  | Strong |
| O=C(C=Cc1ccccc1)OCc1ccccc1 [Benzyl Cinnamate] | ++ | −−− | ++ |  |  |  |
| O=C(Oc1ccccc1)c1ccccc1 [Phenyl Benzoate] | + | + | −−−− | 863 |  | Weak |
| COc1cc(C=O)ccc1O [Vanillin] | + | −−−− | −−−− |  |  | Very Weak |
| O=C(O)c1ccccc1 [Benzoic Acid] | −−−− | −−−−− | −−−−− |  |  | Non- |
| CC=Cc1ccc(O)c(OC)c1 [Isoeugenol] | + | + | ++ | 110 |  | Moderate |
